Measurements from US9107411B2, “Indolecarboxamides and benzimidazolecarboxamides as insecticides and acaricides” (BAYER INTELLECTUAL PROPERTY GMBH, priority 2011, dated 2015).
Like-named read-outs stand apart in the source and are kept apart here.

Legend:
logP (HPLC-MS) = type: physicochemical
Phaedon cochleariae = assay: Phaedon test (PHAECO spray treatment); type: in vivo; details: Chinese cabbage leaf discs, after 7 days; for pest or weed control at 100 g/ha: Phaedon cochleariae, foliar, 168 h, read-out: efficacy in %
Experimental: Phaedon Test ([…] Spray Treatment) Solvent: 78.0 parts by weight of acetone • • 1.5 parts by weight of dimethylformamide Emulsifier: 0.5 part by weight of alkylaryl polyglycol ether To produce an appropriate active ingredient formulation, 1 part by weight of active ingredient is mixed with the stated amounts of solvent and emulsifier, and the concentrate is diluted with emulsifier-containing water to the desired concentration. Leaf discs of Chinese cabbage (Brassica pekinensis) are sprayed with an active ingredient formulation of the desired concentration and, after drying, populated with larvae of the mustard beetle (Phaedon cochleariae). After 7 days, the efficacy in % is determined. 100% means that all of the beetle larvae have been killed; 0% means that none of the beetle larvae have been killed.

Tetranychus urticae = assay: Tetranychus test, OP-resistant (TETRUR spray treatment); type: in vivo; details: application rate 100 g/ha; bean leaf discs; after 6 days
Experimental: Tetranychus Test, OP-Resistant (TETRUR Spray Treatment)
Solvent: 78.0 parts by weight of acetone • • 1.5 parts by weight of dimethylformamide
Emulgator: 0.5 part by weight of alkylaryl polyglycol ether
To produce an appropriate active ingredient formulation, 1 part by weight of active ingredient is mixed with the stated amounts of solvent and emulsifier, and the concentrate is diluted with emulsifier-containing water to the desired concentration.
Discs of bean leaves (Phaseolus vulgaris) infested by all stages of the red spider mite (Tetranychus urticae) are sprayed with an active ingredient formulation of the desired concentration.
After 6 days, the efficacy in % is determined. 100% means that all of the spider mites have been killed; 0% means that none of the spider mites have been killed.

Spodoptera frugiperda = Spodoptera frugiperda test (SPODFR spray treatment); type: in vivo; details: maize leaf discs, after 7 days
Experimental: Spodoptera frugiperda Test (SPODFR Spray Treatment) Solvent: 78.0 parts by weight of acetone • • 1.5 parts by weight of dimethylformamide To produce an appropriate active ingredient formulation, 1 part by weight of active ingredient is mixed with the stated amounts of solvent and emulsifier, and the concentrate is diluted with emulsifier-containing water to the desired concentration. Leaf discs of maize (Zea mays) are sprayed with an active ingredient formulation of the desired concentration and, after drying, populated with caterpillars of the armyworm (Spodoptera frugiperda). After 7 days, the efficacy in % is determined 100% means that all of the caterpillars have been killed; 0% means that none of the caterpillars have been killed.

[1] = HPLC, reversed-phase column (C18), acidic range pH 2.7, acetonitrile (0.1% formic acid)/water gradient, 43° C., calibration with unbranched alkan-2-ones
[2] = HPLC, reversed-phase column (C18), acidic range pH 2.7, acetonitrile (0.1% formic acid)/water gradient, 43° C., calibration with unbranched alkan-2-ones, read-out: log p
[3] = HPLC, reversed-phase column (C18), 43° C., acidic range pH 2.7, EEC directive 79/831 Annex V.A8, two values = both regioisomers (G = N)

SMILES | log p (logP (HPLC-MS); [1]) | efficacy in % (Phaedon cochleariae; application rate 100 g/ha) | efficacy in % (Spodoptera frugiperda; application rate 100 g/ha) | log p (logP (HPLC-MS); [3]) | other results
CCn1c(C(=O)NC(c2cccc(C(F)(F)F)c2)C(F)(F)F)cc2cc(CNC(=O)C3CC3)c(C(F)(F)F)cc21 (stereo not shown) [Compound 23] | 4.37 | 100% |  |  | 
CCn1c(C(=O)NC(c2cccc(C(F)(F)F)c2)C(F)(F)F)c(Cl)c2cc(C(=O)NC3(C#N)CC3)c(Cl)cc21 (stereo not shown) [Compound 271, 3,6-dichloro-N^5-(1-cyanocyclopropyl)-1-ethyl-N^2-{2,2,2-trifluoro-1-[3-(trifluoromethyl)phenyl]ethyl}-1H-indole-2,5-dicarboxamide] |  |  |  |  | chromatographic logP (logP (HPLC-MS); [2]): 3.95; chromatographic logP (logP (HPLC-MS); HPLC-MS): 3.95; pest or weed control at 100 g/ha (Phaedon cochleariae; application rate 100 g/ha): 100%
CCn1c(C(=O)NC(c2cccc(C(F)(F)F)c2)C(F)(F)F)cc2cc(C(=O)NC(C)CC#N)c(Cl)cc21 (stereo not shown) [Compound 269] | 3.78 | 100% |  |  | 
Cn1c(C(=O)NC(c2cccc(Cl)c2)C(F)(F)F)cc2cc(C(=O)NC3(C#N)CC3)c(Cl)cc21 (stereo not shown) [Compound 46] | 3.31 | 100% |  |  | efficacy in % (Tetranychus urticae): 100%
CCn1c(C(=O)NC(c2cccc(C(F)(F)F)c2)C(F)(F)F)cc2cc(C(=O)NC3(C(F)(F)F)CC3)c(Cl)cc21 (stereo not shown) [Compound 267] | 4.30 | 100% | 100% |  | 
Cn1c(C(=O)NC(c2cccc(Cl)c2)C(F)(F)F)cc2cc(C(=O)NC3CC3)c(Cl)cc21 (stereo not shown) [Compound 45] | 3.33 | 100% | 100% |  | 
CCn1c(C(=O)NC(c2cccc(C(F)(F)F)c2)C(F)(F)F)cc2cc(C(=O)NC3(C)CC3C)c(Cl)cc21 (stereo not shown) [Compound 266] | 4.41 | 100% |  |  | 
O=C(NC1CC1)c1cc2nc(C(=O)NC(c3cccc(C(F)(F)F)c3)C(F)(F)F)n(CC3CC3)c2cc1Cl (stereo not shown) [Compound 322] |  | 100% | 100% |  | 
CCOC1(NC(=O)c2cc3cc(C(=O)NC(c4cccc(C(F)(F)F)c4)C(F)(F)F)n(CC)c3cc2Cl)CC1 (stereo not shown) [Compound 31] | 4.19 | 100% | 100% |  | 
CCn1c(C(=O)NC(c2ccc(F)c(F)c2)C(F)(F)F)cc2cc(C(=O)NC(C)C[S+](C)[O-])c(C)cc21 (stereo not shown) [Compound 321] |  |  |  | 2.76 | 
CCNC(=O)c1cc2cc(C(=O)NC(c3ccc(F)c(C(F)(F)F)c3)C(F)(F)F)n(CC)c2cc1Cl (stereo not shown) [Compound 17] | 3.91 | 100% | 100% |  | 
CCn1c(C(=O)NC(c2cccc(C(F)(F)F)c2)C(F)(F)F)cc2cc(CNC(=O)C3CC3)c(Cl)cc21 (stereo not shown) [Compound 24] | 4.19 | 100% | 100% |  | 
CCn1c(C(=O)NC(c2ccc(F)c(F)c2)C(F)(F)F)cc2cc(C(=O)NC3CC3)c(Cl)cc21 (stereo not shown) [Compound 329] |  |  |  | 3.52 | 
CCn1c(C(=O)NC(c2ccc3c(c2)OC(F)(F)O3)C(F)(F)F)cc2cc(C(=O)NC3CC3)c(C)cc21 (stereo not shown) [Compound 307] |  | 100% | 100% | 3.81 | 
Cc1cc2c(cc1C(=O)NC1(C#N)CC1)cc(C(=O)NC(c1cccc(C(F)(F)F)c1)C(F)(F)F)n2C (stereo not shown) [Compound 196] | 3.49 | 100% | 100% |  | 
C=Cn1c(C(=O)NC(c2cccc(C(F)(F)F)c2)C(F)(F)F)cc2cc(C(=O)NC3(C#N)CC3)ccc21 (stereo not shown) [Compound 324] |  |  |  | 3.48 | 
CCn1c(C(=O)NC(c2cc(Cl)c(F)c(Cl)c2)C(F)(F)F)cc2cc(C(=O)NC3CC3)c(Cl)cc21 (stereo not shown) [Compound 327] |  |  |  | 4.29 | 
Cn1c(C(=O)NC(c2cccc(C(F)(F)F)c2)C(F)(F)F)cc2cc(C(=O)NC3(C#N)CC3)c(Cl)cc21 (stereo not shown) [Compound 44] | 3.55 | 100% | 100% |  | 
CCn1c(C(=O)NC(c2cccc(C(F)(F)F)c2)C(F)(F)F)cc2cc(CNC(C)=O)c(Cl)cc21 (stereo not shown) [Compound 26, 5-(acetamidomethyl)-6-chloro-1-ethyl-N-{2,2,2-trifluoro-1-[3-(trifluoromethyl)phenyl]ethyl}-1H-indole-2-carboxamide] |  |  |  |  | chromatographic logP (logP (HPLC-MS); [2]): 3.77; chromatographic logP (logP (HPLC-MS); HPLC-MS): 3.77; pest or weed control at 100 g/ha (Phaedon cochleariae; application rate 100 g/ha): 100%

SMILES | log p (logP (HPLC-MS); [1]) | efficacy in % (Phaedon cochleariae; application rate 100 g/ha) | efficacy in % (Spodoptera frugiperda; application rate 100 g/ha) | log p (logP (HPLC-MS); [3]) | other results
C#CCn1c(C(=O)NC(c2cccc(C(F)(F)F)c2)C(F)(F)F)nc2cc(C(=O)NC3CC3)c(Cl)cc21 (stereo not shown) [Compound 91] | 3.55 | 100% | 100% |  | 
CC(C)Cn1c(C(=O)NC(c2cccc(C(F)(F)F)c2)C(F)(F)F)cc2cc(C(=O)NC3(C#N)CC3)c(Cl)cc21 (stereo not shown) [Compound 299] |  | 100% | 100% | 4.13 | 
CCn1c(C(=O)NC(c2cccc(C(F)(F)F)c2)C(F)(F)F)cc2cc(C(=O)NC(C#N)C(C)C)c(Cl)cc21 (stereo not shown) [Compound 270] | 4.37 | 100% |  |  | 
CCn1c(C(=O)NC(c2cccc(C(F)(F)F)c2)C(F)(F)F)cc2cc(C(=O)NC(C#N)(CC)CC)c(Cl)cc21 (stereo not shown) [Compound 264] | 4.41 | 100% |  |  | 
C#CC1(NC(=O)c2cc3cc(C(=O)NC(c4cccc(C(F)(F)F)c4)C(F)(F)F)n(CC)c3cc2Cl)CCC1 (stereo not shown) [Compound 33] | 4.20 | 100% |  |  | 
CCn1c(C(=O)NC(c2cccc(C(F)(F)F)c2)C(F)(F)F)cc2cc(C(=O)NC(C#N)c3ccccc3)c(Cl)cc21 (stereo not shown) [Compound 318] |  | 100% |  | 4.37 | 
CCn1c(C(=O)NC(c2ccc(F)c(C(F)(F)F)c2)C(F)(F)F)cc2cc(C(=O)NC(CF)CF)c(C)cc21 (stereo not shown) [Compound 306] |  | 100% | 83% | 4.03 | 
CCn1c(C(=O)NC(c2cccc(C(F)(F)F)c2)C(F)(F)F)cc2cc(C(=O)NC(C#N)(COC)COC)c(Cl)cc21 (stereo not shown) [Compound 325] |  | 100% |  | 4.16 | 
Cn1c(C(=O)NC(c2cccc(C(F)(F)F)c2)C(F)(F)F)nc2cc(C(=O)NC3CC3)c(Cl)cc21 (stereo not shown) [Compound 1] | 3.4 |  |  |  | efficacy in % (Spodoptera frugiperda; application rate 500 g/ha): 100%; efficacy in % (Phaedon cochleariae; application rate 500 g/ha): 100%
CCn1c(C(=O)NC(c2cccc(C(F)(F)F)c2)C(F)(F)F)cc2cc(C(=O)NC3(CC)CC3)c(Cl)cc21 (stereo not shown) [Compound 30] | 4.45 | 100% | 83% |  | 
COC(=O)Cn1c(C(=O)NC(c2cccc(C(F)(F)F)c2)C(F)(F)F)cc2cc(C(=O)NC3(C#N)CC3)c(Cl)cc21 (stereo not shown) [Compound 326] |  | 100% |  | 3.36 | 
CCn1c(C(=O)NC(c2cccc(C(F)(F)F)c2)C(F)(F)F)cc2cc(C(=O)NC3(C#N)CC3)c(C(C)C)cc21 (stereo not shown) [Compound 319] |  | 100% | 100% | 4.08 | 
CCn1c(C(=O)NC(c2cc(F)cc(C(F)(F)F)c2)C(F)(F)F)cc2cc(C(=O)NC3(C#N)CC3)c(C)cc21 (stereo not shown) [Compound 331] |  |  |  | 4.02 | 
CCC(=O)NCc1cc2cc(C(=O)NC(c3cccc(C(F)(F)F)c3)C(F)(F)F)n(CC)c2cc1Cl (stereo not shown) [Compound 25] | 4.06 | 100% | 100% |  | 
CCn1c(C(=O)NC(c2cccc(C(F)(F)F)c2)C(F)(F)F)cc2cc(C(=O)NC3(C4CC4)CC3)c(Cl)cc21 (stereo not shown) [Compound 29] | 4.45 | 100% | 83% |  | 
CCn1c(C(=O)NC(c2cccc(C(F)(F)F)c2)C(F)(F)F)cc2cc(C(=O)NCC#N)c(Cl)cc21 (stereo not shown) [Compound 21] | 3.64 | 100% |  |  | 
CCOC(=O)C1(NC(=O)c2cc3cc(C(=O)NC(c4cccc(C(F)(F)F)c4)C(F)(F)F)n(CC)c3cc2Cl)CC1 (stereo not shown) [Compound 34] | 3.99 | 100% | 83% |  | 
CCn1c(C(=O)NC(c2ccc(F)c(C(F)(F)F)c2)C(F)(F)F)nc2cc(C(=O)NC3CC3)c(Br)cc21 (stereo not shown) [Compound 332] |  |  |  | 3.76 | 
C=CCN(C(=O)c1cc2nc(C(=O)NC(c3cccc(C(F)(F)F)c3)C(F)(F)F)n(CC=C)c2cc1Cl)C1CC1 (stereo not shown) [Compound 309] |  |  |  | 4.74 | efficacy in % (Spodoptera frugiperda; application rate 500 g/ha): 100%; efficacy in % (Phaedon cochleariae; application rate 500 g/ha): 83%
